Measurements taken from PubChem BioAssay AID2060889 (Molecular Pharmacology Branch, DTP, NCI, 2025).
Values belong to the molecule of their own block, whether it stands above or below them.

System: LG0567-F671-PDC complex spheroids viability
Assay: Anticancer human tumor LG0567-F671-PDC patient-derived lung adenocarcinoma cell line growth inhibition [RAS]
Details: for IC50: curve of first compound; for viability, T/C: stronger effect = lower value
Source text: RAS pathway inhibitors in Combinations in Complex Spheroids
A high-throughput screen of multi-cell type tumor spheroids was designed to identify active combinations of RAS pathway inhibitors and targeted small molecules. Complex spheroids include a stromal component modeled by human endothelial cells (HUVEC) and fibroblasts modeled by human mesenchymal stem cells (MSCs). The concentration ranges selected for each drug and investigational agent were based upon clinically achievable concentrations if the clinical Cmax of the agent was known.
Compounds. The drugs and investigational agents: abemaciclib (NSC768073), cobimetinib (NSC768068), divarasib (GDC6063, NSC841802), docetaxel (NSC628503), GDC-1971 (RLY-1971, NSC841576), gemcitabine (NSC613327), inavolisib (NSC800729), ipatasertib (NSC767898), KB-0742 (NSC834161), MRTX-1133 (NSC836407), osimertinib (NSC779217), RMC-4630 (NSC839698), RMC-6236 (NSC851965), RMC-6291 (NSC852671), Ro-3306 (NSC812927), sapanisertib (NSC764658), SN-38 (NSC673596), staurosporine (NSC755774), SY5609 (NSC837396), and tovorafenib (DAY101, NSC766906), were obtained from the National Cancer Institute (NCI) Developmental Therapeutics Program Chemical Repository. The FDA-approved anticancer drug set is available from the NCI Developmental Therapeutics Program. […] The stock solutions were prepared in dimethyl sulfoxide (DMSO, Sigma-Aldrich, St. Louis, MO, cat. D2650) at 800-fold the tested concentration and stored at -70 degrees C prior to their use. All drugs and investigational agents were tested over a range starting from a high concentration at or near the clinical Cmax and decreasing in half-log increments. If the clinical Cmax for an agent had not been determined, the highest concentration tested was 10 microM.
Cell Culture. All cells were maintained in an incubator at 37 degrees C and 5% CO2 with 95% humidity. The PDC lines were cultured according to standard operating procedures established by the NCI PDMR. All PDCs were thawed and cultured in Matrigel-coated flasks prepared with a working solution of 1X Ham's F-12 nutrient mix, without supplementation (Invitrogen, Waltham, MA, cat. 11765054), 100 U/mL penicillin-streptomycin (Invitrogen, cat. 15140122), and 2.5% Matrigel (Corning Inc., Corning, NY, cat. 354248) for the first three passages. The 362531-283-R-J2-PDC and 782815-120-R-J1-PDC lines were cultured in 6C/Colon 1B media, which includes advanced DMEM/F-12 (Thermo Fisher Scientific, cat. 12634028), 10 mM HEPES (Thermo Fisher Scientific, cat. 15630080), 1X GlutaMAX supplement (Thermo Fisher Scientific, cat. 35050061), 0.1 mg/mL primocin (InvivoGen, San Diego, CA, cat. ant-pm-2), 10% defined fetal bovine serum, heat inactivated (HyClone Laboratories Inc., Logan, UT, cat. SH30070.03HI), 50% L-WRN conditioned media (ATCC, cat. CRL-3276), 1.25 mM N-Acetyl-L-cysteine (Sigma-Aldrich, cat. A9165), 10 mM nicotinamide (Sigma-Aldrich, cat. N0636), 1X B-27 supplement (Thermo Fisher Scientific, cat. 17504044), 1X N-2 supplement (Thermo Fisher Scientific, cat. 17502048), 50 ng/mL human EGF (Thermo Fisher Scientific, cat. PHG0311), and 10 microM Y-27632 dihydrochloride (Tocris Bioscience, cat. 1254). The K12877-001-R-J1-PDC line was cultured in 6I media, which includes all 6C/Colon 1B media plus 10 ng/mL human FGF-10 (PeproTech, cat. 100-26), 1 ng/mL human FGF-2 (PeproTech, cat. 100-18B), 1 µM prostaglandin E2 (Tocris Bioscience, cat. 2296), […] hydrocortisone (Sigma-Aldrich, cat. H4001), and […] bovine insulin (Sigma-Aldrich, cat. I6634). The K86415-001-R-J1-PDC line was cultured in 6D media, which includes all 6C/Colon 1B media components minus the L-WRN conditioned media. The 485176-168-R4-J1-PDC was cultured in PANC media, which includes all 6C/Colon 1B media plus 100 ng/mL human FGF-10 (PeproTech, cat. 100-26), 500 nM SB-431542 (Selleckchem, cat. S1067), and 10 nM gastrin (Tocris Bioscience, cat. 3006). […]
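Further: spheroids exposed to compound for seven days before readout.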
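Wherever IC50 is given: luminescence signal used as a proxy for viable cells.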

IC50 (second compound 0.000949 µM): < 31.6 nM
IC50 (second compound 0.003 µM): < 31.6 nM
IC50 (second compound 0.00949 µM): < 31.6 nM
IC50 (second compound 0.03 µM): < 31.6 nM
IC50 (second compound 0.0949 µM): < 31.6 nM
IC50 (second compound 0.3 µM): < 31.6 nM
Structure (SMILES): NC1c2ccccc2OC12CCN(c1cnc3c(N4CCCc5ncccc54)n[nH]c3n1)CC2 (centres undefined) + CCn1c(-c2cccnc2C(C)OC)c2c3cc(ccc31)N1CCOC(CC(NC(=O)C(C(C)C)N(C)C(=O)C3(F)CCN(C(=O)C#CC(C)(C)N(C)C)CC3)C(=O)N3CCCC(N3)C(=O)OCC(C)(C)C2)C1
viability, T/C (second compound 0.000949 µM, first compound 0.0316 µM): 4.75%
viability, T/C (second compound 0.000949 µM, first compound 0.1 µM): 4.54%
viability, T/C (second compound 0.000949 µM, first compound 0.316 µM): 2.82%
viability, T/C (second compound 0.000949 µM, first compound 1 µM): 2.6%
viability, T/C (second compound 0.000949 µM, first compound 3.16 µM): 3.24%
viability, T/C (second compound 0.000949 µM, first compound 10 µM): 2.18%
viability, T/C (second compound 0.003 µM, first compound 0.0316 µM): 5.7%
viability, T/C (second compound 0.003 µM, first compound 0.1 µM): 4.2%
viability, T/C (second compound 0.003 µM, first compound 0.316 µM): 3.08%
viability, T/C (second compound 0.003 µM, first compound 1 µM): 2.79%
viability, T/C (second compound 0.003 µM, first compound 3.16 µM): 2.89%
viability, T/C (second compound 0.003 µM, first compound 10 µM): 3%
viability, T/C (second compound 0.00949 µM, first compound 0.0316 µM): 6.21%
viability, T/C (second compound 0.00949 µM, first compound 0.1 µM): 3.69%
viability, T/C (second compound 0.00949 µM, first compound 0.316 µM): 3.15%
viability, T/C (second compound 0.00949 µM, first compound 1 µM): 2.2%
viability, T/C (second compound 0.00949 µM, first compound 3.16 µM): 1.99%
viability, T/C (second compound 0.00949 µM, first compound 10 µM): 1.74%
viability, T/C (second compound 0.03 µM, first compound 0.0316 µM): 4.82%
viability, T/C (second compound 0.03 µM, first compound 0.1 µM): 4.27%
viability, T/C (second compound 0.03 µM, first compound 0.316 µM): 2.5%
viability, T/C (second compound 0.03 µM, first compound 1 µM): 1.95%
viability, T/C (second compound 0.03 µM, first compound 3.16 µM): 1.88%
viability, T/C (second compound 0.03 µM, first compound 10 µM): 2.47%
viability, T/C (second compound 0.0949 µM, first compound 0.0316 µM): 4.25%
viability, T/C (second compound 0.0949 µM, first compound 0.1 µM): 3.02%
viability, T/C (second compound 0.0949 µM, first compound 0.316 µM): 2.73%
viability, T/C (second compound 0.0949 µM, first compound 1 µM): 1.84%
viability, T/C (second compound 0.0949 µM, first compound 3.16 µM): 1.66%
viability, T/C (second compound 0.0949 µM, first compound 10 µM): 1.44%
viability, T/C (second compound 0.3 µM, first compound 0.0316 µM): 3.31%
viability, T/C (second compound 0.3 µM, first compound 0.1 µM): 2.55%
viability, T/C (second compound 0.3 µM, first compound 0.316 µM): 1.71%
viability, T/C (second compound 0.3 µM, first compound 1 µM): 1.65%
viability, T/C (second compound 0.3 µM, first compound 3.16 µM): 1.27%
viability, T/C (second compound 0.3 µM, first compound 10 µM): 2.62%

IC50 (second compound 0.0316 µM): < 31.6 nM
IC50 (second compound 0.1 µM): < 31.6 nM
IC50 (second compound 0.316 µM): < 31.6 nM
IC50 (second compound 1 µM): < 31.6 nM
IC50 (second compound 3.16 µM): < 31.6 nM
IC50 (second compound 10 µM): < 31.6 nM
Structure (SMILES): CC(=O)OC12COC1CC(O)C1(C)C(=O)C(O)C3=C(C)C(OC(=O)C(O)C(NC(=O)OC(C)(C)C)c4ccccc4)CC(O)(C(OC(=O)c4ccccc4)C21)C3(C)C (centres undefined) + C#Cc1c(F)ccc2cc(O)cc(-c3ncc4c(N5CC6CCC(C5)N6)nc(OCC56CCCN5CC(F)C6)nc4c3F)c12
viability, T/C (second compound 0.0316 µM, first compound 0.0316 µM): 44.2%
viability, T/C (second compound 0.0316 µM, first compound 0.1 µM): 43%
viability, T/C (second compound 0.0316 µM, first compound 0.316 µM): 53.7%
viability, T/C (second compound 0.0316 µM, first compound 1 µM): 60%
viability, T/C (second compound 0.0316 µM, first compound 3.16 µM): 66.5%
viability, T/C (second compound 0.0316 µM, first compound 10 µM): 65.3%
viability, T/C (second compound 0.1 µM, first compound 0.0316 µM): 45.7%
viability, T/C (second compound 0.1 µM, first compound 0.1 µM): 40.1%
viability, T/C (second compound 0.1 µM, first compound 0.316 µM): 53.2%
viability, T/C (second compound 0.1 µM, first compound 1 µM): 56.7%
viability, T/C (second compound 0.1 µM, first compound 3.16 µM): 64.5%
viability, T/C (second compound 0.1 µM, first compound 10 µM): 59.4%
viability, T/C (second compound 0.316 µM, first compound 0.0316 µM): 34.9%
viability, T/C (second compound 0.316 µM, first compound 0.1 µM): 37.8%
viability, T/C (second compound 0.316 µM, first compound 0.316 µM): 45.4%
viability, T/C (second compound 0.316 µM, first compound 1 µM): 49.1%
viability, T/C (second compound 0.316 µM, first compound 3.16 µM): 60%
viability, T/C (second compound 0.316 µM, first compound 10 µM): 43.8%
viability, T/C (second compound 1 µM, first compound 0.0316 µM): 26.7%
viability, T/C (second compound 1 µM, first compound 0.1 µM): 24.8%
viability, T/C (second compound 1 µM, first compound 0.316 µM): 31.1%
viability, T/C (second compound 1 µM, first compound 1 µM): 37%
viability, T/C (second compound 1 µM, first compound 3.16 µM): 43.8%
viability, T/C (second compound 1 µM, first compound 10 µM): 30.8%
viability, T/C (second compound 3.16 µM, first compound 0.0316 µM): 16.1%
viability, T/C (second compound 3.16 µM, first compound 0.1 µM): 16.4%
viability, T/C (second compound 3.16 µM, first compound 0.316 µM): 19.9%
viability, T/C (second compound 3.16 µM, first compound 1 µM): 20.5%
viability, T/C (second compound 3.16 µM, first compound 3.16 µM): 23.9%
viability, T/C (second compound 3.16 µM, first compound 10 µM): 15.2%
viability, T/C (second compound 10 µM, first compound 0.0316 µM): 9.08%
viability, T/C (second compound 10 µM, first compound 0.1 µM): 7.93%
viability, T/C (second compound 10 µM, first compound 0.316 µM): 9.23%
viability, T/C (second compound 10 µM, first compound 1 µM): 8.41%
viability, T/C (second compound 10 µM, first compound 3.16 µM): 9.25%
viability, T/C (second compound 10 µM, first compound 10 µM): 5.64%
